Molecules are shown by their SMILES.

The subject of test [1] is Wheat Powdery Mildew (Erysiphe graminis or blumeria graminis). Description: Open field trial on wheat, wheat powdery mildew, natural contamination. Particulars: 20 days after application 2, BBCH73. Type of test: in vivo. On the procedure: (§1) They are intended to give an illustration of the efficacy of the composition according to the invention on several cereal diseases, in particular a composition combining compound (A), having as chemical name N-ethyl-N-methyl-N′-[4-(chloro-3-trifluoromethylphenoxy)-2,5-xylyl]formamidine, with a fungicide compound of the triazole type, namely prothioconazole. The trials on cereals were carried out in an open field.
(§2) The objective of these field trials is therefore to test the efficacy of compounds (A), alone at 100 g/ha; 125 g/ha and 150 g/ha in combination with prothioconazole at 150 g a.i./ha; representing a class of fungicide compounds. Powdery mildew (Erysiphe graminis or blumeria graminis) and Septoria diseases (Mycosphaerella graminicola or Septoria tritici) are the principal diseases treated.
(§3) The products tested are therefore • N-ethyl-N-methyl-N′-[4-(chloro-3-trifluorométhylphénoxy)-2,5-xylyl]-formamidine as compound (A) at 100 g/ha; 125 g/ha and 150 g/ha as an EC type formulation at 150 g/l; • prothioconazole as compound (B) at 150 g/ha as a formulation at 250 g/l; • compound (A) and prothioconazole combination at 100+150 g/ha as a fresh preparation; • compound (A) and prothioconazole combination at 125+150 g/ha as a fresh preparation; • compound (A) and prothioconazole combination at 150+150 g/ha as a fresh preparation; • the reference product is a mixture of epoxyconazole and pyraclostrobin (Opera® 1,51/ha recommended on Septoria tritici).
(§4) Each trial comprises 3 repeats.
(§5) Untreated control plots are included in the experimental design in order to measure the severity of the diseases.
The trials were conducted under natural contamination conditions. The equipment for application of the different active ingredients is a constant compressed air pressure back sprayer. The spray nozzles have slits. […]
The results were measured 20 days after the second application of the products onto wheat and are presented in table 2; for Erysiphe graminis, assessment 20 days after application 2 at stage BBCH73 by observations of Flag leaf-Flag-1-Flag-2.

Test [2] has as its system Wheat Leaf-spot (Septoria tritici or Mycosphaerella graminicola). Kind of test: Open field trial on wheat, wheat leaf-spot, natural contamination. Type of test: in vivo. Particulars: 30 days after application 2, BBCH73. The procedure:
as §1, §2, §3, §4, §5
The trials were conducted under natural contamination conditions. The equipment for application of the different active ingredients is a constant compressed air pressure back sprayer. The spray nozzles have slits.
The efficacy results were obtained from controls carried out in the field by overall evaluation of the percentage infestation.
The results were measured 30 days after the second application and are presented in table 3; for Septoria tritici, assessment 30 days after application 2 at stage BBCH73 by observations of Flag leaf-Flag-1-Flag-2.

Take `CCN(C)C=Nc1cc(C)c(Oc2ccc(Cl)c(C(F)(F)F)c2)cc1C` [Compound A]: the “% Efficacy observed (X)” value in test [1] (125 g ai/Ha) turned out to be 16%; in test [1] (150 g ai/Ha), 14%; in test [2] (100 g ai/Ha), 17%; in test [2] (125 g ai/Ha) it was 19%; in test [2] (150 g ai/Ha), 24%.
Regarding `OC(Cc1ccccc1Cl)(Cn1nc[nH]c1=S)C1(Cl)CC1` (stereo not shown) [prothioconazole, reference compound], the “% Efficacy observed (X)” value amounted to 71% in test [1] (150 g ai/Ha) and 69% in test [2] (150 g ai/Ha).

These data come from patent US20070155802A1, “Fungicide composition comprising an arylamidine derivative and known fungicide compounds” (priority 2004, published 2007).
